Measured values: PubChem BioAssay (NCI)
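Assay format: 96-well plates, 48-hour exposure. GI50 marks 50% less growth. TGI: concentration producing complete growth inhibition.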

Tests used:
Test in all cases: DTP human tumour cell line panel, 48 h
MOLT-4 leukemia = test system: MOLT-4 leukemia
NCI-H226 lung = test system: NCI-H226 lung
NCI-H23 lung = test system: NCI-H23 lung
NCI-H460 lung = test system: NCI-H460 lung
NCI-H522 lung = test system: NCI-H522 lung
NCI/ADR-RES ovarian = test system: NCI/ADR-RES ovarian
OVCAR-3 ovarian = test system: OVCAR-3 ovarian
OVCAR-4 ovarian = test system: OVCAR-4 ovarian
OVCAR-5 ovarian = test system: OVCAR-5 ovarian
OVCAR-8 ovarian = test system: OVCAR-8 ovarian
PC-3 prostate = test system: PC-3 prostate
RPMI-8226 leukemia = test system: RPMI-8226 leukemia
RXF 393 renal = test system: RXF 393 renal
SF-268 CNS = test system: SF-268 CNS
SF-295 CNS = test system: SF-295 CNS
SF-539 CNS = test system: SF-539 CNS
SK-MEL-2 melanoma = test system: SK-MEL-2 melanoma
SK-MEL-28 melanoma = test system: SK-MEL-28 melanoma
SK-MEL-5 melanoma = test system: SK-MEL-5 melanoma
SK-OV-3 ovarian = test system: SK-OV-3 ovarian
SN12C renal = test system: SN12C renal
SNB-19 CNS = test system: SNB-19 CNS
SNB-75 CNS = test system: SNB-75 CNS
SR leukemia = test system: SR leukemia
SW-620 colon = test system: SW-620 colon
T-47D breast = test system: T-47D breast
TK-10 renal = test system: TK-10 renal
U251 CNS = test system: U251 CNS
UACC-62 melanoma = test system: UACC-62 melanoma
UO-31 renal = test system: UO-31 renal

Cc1c([C@H](C(Cl)Cl)[C@H](O)[C@H]2C[C@H](C)C(=O)O2)ccc2c1C(=O)[C@H]1[C@H]2C[C@@H](Br)[C@@]23O[C@@H](CO[C@H]2O)CC13C (stereo partly specified)
TGI (MOLT-4 leukemia): > 50 µM | GI50 (NCI-H226 lung): > 12.7 µM | TGI (NCI-H226 lung): > 50 µM | GI50 (NCI-H23 lung): 295 nM | TGI (NCI-H23 lung): > 15.3 µM | GI50 (NCI-H460 lung): 187 nM | TGI (NCI-H460 lung): > 50 µM | GI50 (NCI-H522 lung): 183 nM | TGI (NCI-H522 lung): 1690 nM | GI50 (NCI/ADR-RES ovarian): 2170 nM | TGI (NCI/ADR-RES ovarian): 11 µM | GI50 (OVCAR-3 ovarian): 181 nM | GI50 (OVCAR-4 ovarian): 1370 nM | TGI (OVCAR-4 ovarian): > 50 µM | GI50 (OVCAR-5 ovarian): 314 nM | TGI (OVCAR-5 ovarian): > 50 µM | GI50 (OVCAR-8 ovarian): 449 nM | TGI (OVCAR-8 ovarian): > 50 µM | GI50 (PC-3 prostate): 330 nM | TGI (PC-3 prostate): > 50 µM | GI50 (RPMI-8226 leukemia): 240 nM | TGI (RPMI-8226 leukemia): > 50 µM | GI50 (RXF 393 renal): 467 nM | GI50 (SF-268 CNS): 586 nM | TGI (SF-268 CNS): > 50 µM | GI50 (SF-295 CNS): 220 nM | TGI (SF-295 CNS): 2530 nM | GI50 (SF-539 CNS): 304 nM | TGI (SF-539 CNS): 2790 nM | GI50 (SK-MEL-2 melanoma): 403 nM | TGI (SK-MEL-2 melanoma): > 22.2 µM | TGI (SK-MEL-28 melanoma): > 50 µM | GI50 (SK-MEL-5 melanoma): 186 nM | TGI (SK-MEL-5 melanoma): 3.97 µM | GI50 (SK-OV-3 ovarian): 292 nM | TGI (SK-OV-3 ovarian): 4.07 µM | GI50 (SN12C renal): 881 nM | TGI (SN12C renal): > 50 µM | GI50 (SNB-19 CNS): 380 nM | TGI (SNB-19 CNS): > 50 µM | GI50 (SNB-75 CNS): 454 nM | TGI (SNB-75 CNS): > 50 µM | GI50 (SR leukemia): 153 nM | TGI (SR leukemia): > 50 µM | GI50 (SW-620 colon): 309 nM | TGI (SW-620 colon): > 50 µM | GI50 (T-47D breast): 258 nM | TGI (T-47D breast): > 50 µM | GI50 (TK-10 renal): 1680 nM | TGI (TK-10 renal): > 50 µM | GI50 (U251 CNS): 262 nM | TGI (U251 CNS): > 50 µM | GI50 (UACC-62 melanoma): 324 nM | TGI (UACC-62 melanoma): > 50 µM | GI50 (UO-31 renal): 8.89 µM | TGI (UO-31 renal): > 50 µM
